Square brackets hold non-standard residues; d marks the D form. Ends that are not written are not given here. Lys(Me3) = C[N+](C)(C)CCCC[C@H](N)C(=O)O
Tests used:
KDM3A = assay: LC-MS demethylation activity assay, KDM3A; format: biochemical, human; settings: 2 μM KDM, 10 μM H1/H3 peptide, 10 μM FAS, 100 μM LAA, 20 μM 2OG, 50 mM HEPES pH 7.5, 2 h, room temperature, T (tri-) initial methylation state
Method in brief: (§1)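 H1 isoform peptides (10 μM) were incubated 2 h at room temperature with 2 μM recombinant N-terminally His6-tagged catalytic domains in 50 mM HEPES pH 7.5 containing FAS (10 μM), ascorbate (100 μM) and 2OG (20 μM). Reactions were quenched with formic acid (1% final), and demethylation was analysed by LC-MS (Q-TOF).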

KDM4E = target: T1, KDM4E (Homo sapiens, UniProt B2RXH2); assay: LC-MS demethylation activity assay, KDM4E; format: biochemical; settings: room temperature; for di-methylated product formed by KDM4E / mono-methylated product formed by KDM4E / substrate conversion (demethylation) by KDM4E: 2 μM KDM4E, 10 μM peptide; for di-methylated product formed by KDM4E / mono-methylated product formed by KDM4E: standard conditions, 2 h; for KDM4E demethylation activity, T: 2 μM KDM, 10 μM H1/H3 peptide, 50 mM HEPES pH 7.5, 2 h, T (tri-) initial methylation state; for KDM4E demethylation activity, T / substrate conversion (demethylation) by KDM4E: 10 μM FAS, 100 μM LAA, 20 μM 2OG; for substrate conversion (demethylation) by KDM4E: HEPES pH 7.5, 2 h
T1 construct: KDM4DM1-L359,[39]; KDM4EM1-R336,[30]; His6 (N); made in house; host or cells: Escherichia coli
T1 sequence (B2RXH2 1-336): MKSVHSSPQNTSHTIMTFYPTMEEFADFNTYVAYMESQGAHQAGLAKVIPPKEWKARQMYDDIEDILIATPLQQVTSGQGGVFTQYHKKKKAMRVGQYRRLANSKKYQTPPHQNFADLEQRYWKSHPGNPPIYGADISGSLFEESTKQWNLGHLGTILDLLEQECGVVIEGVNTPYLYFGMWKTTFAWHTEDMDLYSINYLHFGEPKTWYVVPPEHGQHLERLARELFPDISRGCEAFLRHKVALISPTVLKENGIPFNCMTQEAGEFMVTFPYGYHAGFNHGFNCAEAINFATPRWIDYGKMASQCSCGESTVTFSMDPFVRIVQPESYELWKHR
Method in brief: as §1

KDM4A = assay: LC-MS demethylation activity assay, KDM4A; format: biochemical, human; settings: 10 μM FAS, 100 μM LAA, 20 μM 2OG, room temperature; for substrate conversion (demethylation) by KDM4A: 2 μM KDM4A, 10 μM peptide, HEPES pH 7.5, 2 h; for KDM4A demethylation activity, T: 2 μM KDM, 10 μM H1/H3 peptide, 50 mM HEPES pH 7.5, 2 h, T (tri-) initial methylation state
Method in brief: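 His6-tagged recombinant catalytic domains (2.0 μM) were used: KDM4A M1–L359, KDM4D M1–L359 and KDM3C L2157–L2500 from E. coli, and KDM5D M1–D775 from Sf9. Each acted on 10 μM H1 peptide in 50 mM HEPES pH 7.5 with 10 μM Fe(II), 100 μM ascorbate and 20 μM 2OG for 2 h at room temperature. Reactions were formic acid-quenched and analysed by LC-MS.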

Row | Substance | KDM3A demethylation activity, T (KDM3A) | di-methylated product formed by KDM4E (KDM4E) | mono-methylated product formed by KDM4E (KDM4E) | KDM4E demethylation activity, T (KDM4E) | substrate conversion (demethylation) by KDM4A (KDM4A) | KDM4A demethylation activity, T (KDM4A) | substrate conversion (demethylation) by KDM4E (KDM4E)
1 | KKKATK[Lys(Me3)]AAGAGAAK [Peptide H1.5K26me3, 15-mer linker histone H1.5 residues 20-34 peptide, tri-methylated K26] | ● [red] | ~40% | ~16% | ● [green] (green dots indicate good demethylation (>50% conversion)) | < 10% | ● [green] (green dots indicate good demethylation (>50% conversion)) | 
2 | KKKAA[Lys(Me3)]KAGGTPRKA [Peptide H1.2K25me3, 15-mer linker histone H1.2 residues 20-34 peptide, tri-methylated K25] | ● [red] | ~50% | ~30% | ● [red] | ~45% | ● [green] (green dots indicate good demethylation (>50% conversion)) | ~80%
3 | KKKAAK[Lys(Me3)]AGGTPRKA [Peptide H1.2K26me3, 15-mer linker histone H1.2 residues 20-34 peptide, tri-methylated K26] | ● [red] | ~50% | ~30% | ● [green] (green dots indicate good demethylation (>50% conversion)) | ~51% | ● [yellow] (yellow dots indicate moderate demethylation (<50% conversion)) | ~80%
4 | KKKAR[Lys(Me3)]SAGAAKRKA [Peptide H1.4K25me3, 15-mer linker histone H1.4 residues 20-34 peptide, tri-methylated K25] | ● [red] | ~28% | ~67% | ● [red] | ~87% | ● [green] (green dots indicate good demethylation (>50% conversion)) | ~95%
5 | KKKA[Lys(Me3)]KAGATAGKRK [Peptide H1.3K24me3, 15-mer linker histone H1.3 residues 20-34 peptide, tri-methylated K24] | ● [red] | ~42% | ~38% | ● [green] (green dots indicate good demethylation (>50% conversion)) | ~36% | ● [green] (green dots indicate good demethylation (>50% conversion)) | ~80%

Reference: paper PMC12363342, “Investigating the N-terminal linker histone H1 subtypes as substrates for JmjC lysine demethylases” (RSC Chemical Biology, 2025)
